Data from patent US20260217701A1, “SELECTIVE BET INHIBITORS AND USES THEREOF” (Tay Therapeutics Limited, priority 2022, published 2026).
Where “and” joins values, the source holds several entries; their conditions need not be identical. Identical values can stand only once.

Test system: imiquimod-induced psoriasis
Test: Imiquimod-induced psoriasis model
Assay type: in vivo, mice
Details: for Body Weight D1: Day 1 (before treatment start on Day 8); for Body Weight D1 / Body Weight D3 / Body Weight D5 / Body Weight D7 / Body Weight D8 / Body Weight D9 / Body Weight D10 / Body Weight D11 / Body Weight D12 / Body Weight D13 / Body Weight D14 / Body Weight D15 / MBWC D1-D8 / MBWC D8-D15 / PASI Scores: individual animals; for Body Weight D3: Day 3 (before treatment start on Day 8); for Body Weight D5: Day 5 (before treatment start on Day 8); for Body Weight D7: Day 7 (before treatment start on Day 8); for Body Weight D8: Day 8 (first day of treatment); for Body Weight D9: Day 9; for Body Weight D10: Day 10; for Body Weight D11: Day 11; for Body Weight D12: Day 12; for Body Weight D13: Day 13; for Body Weight D14: Day 14; for Body Weight D15: Day 15; for MBWC D1-D8: body weight change Day 1 to Day 8 (before treatment); for MBWC D8-D15: body weight change Day 8 to Day 15 (treatment period); for PASI Scores: IMI + Compound A 1 mg/kg
Method in brief: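 Mice given topical imiquimod (5% cream) daily on depilated backs Days 1–14; Compound A in 5% DMSO/40% PEG-400/55% saline from Day 8, clobetasol topical as reference. Daily PASI (erythema, induration, peeling, each 0–4, summed) Days 8–15; spleen weight, open-field behaviour, serum IL-1B, IL-6, IL-17, TNF-α, IL-22, IL-23 at Day 15.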

[1] = IMI + 1 mg/kg, 1 mg/kg, in g (unit assumed)
[2] = IMI + 3 mg/kg, 3 mg/kg, in g (unit assumed)
[3] = IMI + 10 mg/kg, 10 mg/kg, in g (unit assumed)

Cn1cc(-c2ccccc2)c(-c2cn(C)c(=O)c3[nH]c(-c4cnn(C(F)(F)F)c4)cc23)cc1=O [Compound A, 6-methyl-4-(1-methyl-2-oxo-5-phenyl-1,2-dihydropyridin-4-yl)-2-(1-(trifluoromethyl)-1H-pyrazol-4-yl)-1,6-dihydro-7H-pyrrolo[2,3-c]pyridin-7-one]
PASI score improvement by day 15 (1 mg/kg): > 80%
PASI score improvement by day 15 (3 mg/kg): > 90%
symptoms by day 15 (representative images) (3 mg/kg): nearly entirely symptom free
PASI-90 (change in PASI score ≥90%) by day 7 of treatment (3 mg/kg IP once daily): surpassed PASI-90
PASI score improvement by day 15 (10 mg/kg): > 90%
efficacy on the treatment of psoriasis (3 tested doses (1, 3, 10 mg/kg)): very good efficacy
licking scoring (D15): effective in reducing licking scoring
rearing behavior (D15, open field): restored rearing behavior
Body Weight D1 [1]: 16.93 and 17.80 and 16.08 and 16.97 and 17.74 and 17.12 and 18.36 and 17.34
Body Weight D3 [1]: 15.40 and 16.02 and 15.09 and 15.92 and 16.29 and 16.59 and 16.98 and 15.19
Body Weight D5 [1]: 15.20 and 16.76 and 15.65 and 16.45 and 16.71 and 17.23 and 17.40 and 15.42
Body Weight D7 [1]: 15.18 and 17.36 and 15.85 and 16.10 and 16.71 and 17.27 and 17.41 and 15.38
Body Weight D8 [1]: 14.60 and 16.99 and 15.82 and 16.44 and 16.60 and 17.49 and 16.66 and 14.75
Body Weight D9 [1]: 14.63 and 17.16 and 15.82 and 16.15 and 16.59 and 17.04 and 16.41 and 15.55
Body Weight D10 [1]: 14.70 and 16.93 and 15.61 and 15.89 and 16.21 and 16.73 and 16.12 and 15.11
Body Weight D11 [1]: 14.84 and 17.22 and 15.81 and 15.74 and 16.25 and 16.90 and 16.89 and 15.58
Body Weight D12 (IMI + 1 mg/kg, 1 mg/kg): 14.87 and 16.99 (2×) and 15.46 and 15.54 and 17.30 and 17.06 and 15.66
Body Weight D13 [1]: 15.05 and 17.40 and 16.20 and 15.94 and 16.75 and 17.05 and 16.69 and 15.46
Body Weight D14 [1]: 15.56 and 17.50 and 16.49 and 16.50 and 17.20 and 17.24 and 16.86 and 16.35
Body Weight D15 [1]: 15.74 and 17.76 and 16.69 and 17.05 and 17.07 and 17.34 and 17.23 and 16.41
MBWC D1-D8 (IMI + 1 mg/kg, 1 mg/kg): −2.33 and −0.81 and −0.26 and −0.53 and −1.14 and 0.37 and −1.70 and −2.59
MBWC D8-D15 (IMI + 1 mg/kg, 1 mg/kg): 1.14 and 0.77 and 0.87 and 0.61 and 0.47 and −0.15 and 0.57 and 1.66
Body Weight D1 [2]: 17.31 and 16.98 and 19.05 and 16.34 and 18.16 and 17.71 and 15.90 and 17.04
Body Weight D3 [2]: 15.94 and 14.69 and 16.63 and 15.29 and 15.93 and 15.05 and 14.65 and 15.53
Body Weight D5 [2]: 16.84 and 15.15 and 16.74 and 15.65 and 17.11 and 16.06 and 16.09 and 15.35
Body Weight D7 [2]: 16.64 and 14.71 and 16.54 and 14.84 and 17.16 and 15.73 and 15.75 and 15.45
Body Weight D8 (IMI + 3 mg/kg, 3 mg/kg): 16.59 and 14.84 and 16.76 and 15.51 (2×) and 15.95 and 15.14 and 15.67
Body Weight D9 [2]: 16.53 and 14.49 and 16.98 and 15.40 and 16.26 and 15.22 and 15.49 and 14.89
Body Weight D10 [2]: 16.64 and 14.53 and 17.40 and 15.71 and 16.02 and 15.31 and 14.80 and 14.76
Body Weight D11 [2]: 17.05 and 14.95 and 17.25 and 15.60 and 16.07 and 15.67 and 15.43 and 15.33
Body Weight D12 [2]: 17.56 and 15.38 and 17.88 and 15.18 and 16.82 and 16.07 and 15.80 and 15.88
Body Weight D13 [2]: 17.68 and 16.03 and 18.03 and 15.39 and 16.24 and 16.09 and 15.63 and 15.61
Body Weight D14 [2]: 17.80 and 16.01 and 17.97 and 15.32 and 16.91 and 16.84 and 15.90 and 15.97
Body Weight D15 (IMI + 3 mg/kg, 3 mg/kg): 18.44 (2×) and 16.47 (2×) and 15.82 and 16.95 and 16.91 and 16.13
MBWC D1-D8 (IMI + 3 mg/kg, 3 mg/kg): −0.72 and −2.14 and −2.29 and −0.83 and −2.21 and −2.57 and −0.39 and −1.37
MBWC D8-D15 (IMI + 3 mg/kg, 3 mg/kg): 1.85 and 1.63 and 1.68 and 0.31 and 1.00 and 1.77 and 0.62 and 0.80
Body Weight D1 [3]: 17.49 and 17.30 and 19.10 and 19.20 and 19.68 and 17.68 and 16.28 and 17.45
Body Weight D3 [3]: 15.01 and 14.91 and 17.43 and 18.70 and 15.42 and 17.04 and 13.99 and 14.57
Body Weight D5 (IMI + 10 mg/kg, 10 mg/kg): 15.12 (2×) and 14.82 and 17.32 and 19.02 and 15.82 and 16.99 and 15.18
Body Weight D7 [3]: 16.33 and 15.77 and 17.25 and 18.62 and 16.18 and 17.36 and 15.18 and 14.93
Body Weight D8 [3]: 16.07 and 15.40 and 17.12 and 18.84 and 15.35 and 16.21 and 14.88 and 14.68
Body Weight D9 [3]: 15.69 and 15.96 and 16.63 and 19.27 and 15.91 and 16.41 and 14.96 and 14.71
Body Weight D10 [3]: 15.53 and 15.84 and 16.68 and 18.91 and 16.27 and 16.73 and 15.10 and 14.49
Body Weight D11 (IMI + 10 mg/kg, 10 mg/kg): 15.74 and 15.58 (2×) and 16.84 and 19.15 and 16.81 and 17.05 and 15.32
Body Weight D12 [3]: 15.83 and 15.88 and 17.03 and 19.25 and 17.13 and 17.19 and 16.27 and 15.58
Body Weight D13 [3]: 17.35 and 16.03 and 17.55 and 19.51 and 16.98 and 17.10 and 16.02 and 15.65
Body Weight D14 [3]: 16.58 and 16.42 and 17.59 and 19.36 and 17.68 and 17.84 and 16.59 and 15.62
Body Weight D15 [3]: 16.60 and 16.43 and 18.35 and 19.39 and 17.81 and 18.26 and 16.77 and 15.96
MBWC D1-D8 (IMI + 10 mg/kg, 10 mg/kg): −1.42 and −1.90 and −1.98 and −0.36 and −4.33 and −1.47 and −1.40 and −2.77
MBWC D8-D15 (IMI + 10 mg/kg, 10 mg/kg): 0.53 and 1.03 and 1.23 and 0.55 and 2.46 and 2.05 and 1.89 and 1.28
PASI Scores (D8 (day treatment started), 1 mg/kg): 8 (4×) and 6 (2×) and 7 (2×)
PASI Scores (D9, 1 mg/kg): 7 (3×) and 6 (3×) and 9 and 8
PASI Scores (D10, 1 mg/kg): 7 and 6 (3×) and 5 (3×) and 8
PASI Scores (D11, 1 mg/kg): 6 (3×) and 4 (2×) and 5 and 8 and 7
